Tests used:
CT26 cells = assay: WST-1 cell proliferation assay, CT26; format: cell-based, mouse; settings: CT26, WST-1, 72 hours
Description: (A) CT26, 4T1 or MDA-MB-231 Cells were treated with inhibitors for 72 hours. Following inhibition, media was removed and replaced with WST-1 cell proliferation reagent. Absorbance was recorded at 450 nm after 1 hour. Data represent a single independent experiment performed in triplicate. Results are graphed as mean +/− standard error (SE). B) MDA-MB-231 or CT26 cancer cells were treated with vehicle control, DL-2-Batch 1 (original stock), DL-2-Batch 2 (current stock), DL-2-TBAB or linear PDL1. Cells were permeabilised and were probed with the DUOLINK ligation assay. Cover slips were mounted on glass microscope slides with ProLong nucblue glass Antifade reagent (Life Technologies). PDL1Ac and IMPα1 DUOLINK Digital images were analysed using ImageJ software (ImageJ, NIH, Bethesda, MD, USA) and graphs represent the mean DOT Fluorescent Intensity in the nucleus or the cytoplasm compartments with significant differences calculated as per one-way ANOVA comparison. (C) MDA-MB-231 or CT26 cancer cells were treated with vehicle control, DL-2-Batch 1 (Original stock), DL-2-Batch 2 (current stock), DL-2-TBAB or linear PDL1. Cells were permeabilised and were probed with the DUOLINK ligation assay. Cover slips were mounted on glass microscope slides with ProLong nucblue glass Antifade reagent (Life Technologies). PDL1-unmodified and IMPα1 DUOLINK digital images were analysed using ImageJ software (ImageJ, NIH, Bethesda, MD, USA) and graphs represent the mean DOT fluorescent intensity in the nucleus or the cytoplasm compartments with significant differences calculated as per one-way ANOVA comparison.
4T1, CT26 or MDA-MB-231 cancer cell lines were treated with DL-2 or DL-2-D bicyclic inhibitors for 72 hours. Following inhibition, media was removed and replaced with WST-1 cell proliferation reagent. Absorbance was recorded at 450 nm after 1 hour. Data represent a single independent experiment performed in triplicate; results are graphed as mean +/− standard error (SE).

[1] = tested on: CSV, ABCB5, EGFR, FOXQ1, E-Cadherin in MDA-MB-231-Br cells; assay: High resolution digital pathology of mesenchymal/epithelial markers, MDA-MB-231-Br; format: cell-based, human
Description: To examine the signature of CD8, CSV, EGFR, ABCB5, FOXQ1, commercial PD-L1-28-8, nuclear PD-L1, cytoplasmic PDL1 in MDA-MB-231 TNBC cells/TNBC brain cancer clone cells (untreated or treated with bicyclic inhibitors targeting nuclear PD-L1-PTM1). MDA-MB-231/MDA-MB-231-Br cells were permeabilised by incubating with 0.5% Triton X-100 for 15 min, blocked with 1% BSA in PBS and were probed with either CSV (Mouse host), CD8 (mouse host), EGFR (Rabbit host), ABCB5 (Goat Host), ALDH1A (Rabbit Host), NODAL (Goat Host), nuclear PDL1 (rabbit host), cytoplasmic PD-L1 (rabbit host) visualized with a donkey anti-rabbit AF 488, anti-mouse AF 568, donkey anti-goat 647. […] Digital images were analyzed using automated ASI software (Applied Spectral Imaging, Carlsbad, CA) to determine the distribution and intensities automatically with automatic thresholding and background correction of the average nuclear fluorescence intensity (NFI), allowing for the specific targeting of expression of proteins of interest. Digital images were also analysed using ImageJ software (ImageJ, NIH, Bethesda, MD, USA) to determine the total cell fluorescence or cell surface only fluorescence for non-permeabilised cells. Digital images were analysed using ImageJ software (ImageJ, NIH, Bethesda, MD, USA) to determine either the Total Nuclear Fluorescent Intensity (TNFI), the Total Cytoplasmic Fluorescent Intensity (TCFI). […]

PDL2:IMPα1 complex = molecular target: T1, PDL2:IMPα1 complex (Homo sapiens, UniProt P52292); assay: Binding specificity assay (DUOLINK PDL2 and IMPα1); format: cell-based; settings: MDA-MB-231, any concentration (10 μM to 0.00975 μM)
T1 construct: with concentrations ranging from 10 μM to 0.00975 μM; endogenous in cells; host or cells: MDA-MB-231
Description: MDA-MB-231 cells were treated with DL-2; with concentrations ranging from 10 μM to 0.00975 μM. Cover slips were mounted on glass microscope slides with Prolong nucleus glass Antifade reagent (Life Technologies). PDL2 and IMPα1 DUOLINK Digital images were analyzed using ImageJ software (ImageJ, NIH, Bethesda, MD, USA) and graphs represent the mean DOT Fluorescent Intensity in the nucleus or the cytoplasm compartments with significant differences calculated as per Kruskal-Wallis one-way ANOVA.

## CCCCCCCCCCCCCC(=O)NC(C)C(=O)NC1CSCc2cc3cc(c2)CSC[C@H](NC(=O)[C@H](Cc2ccccc2)NC(=O)[C@H](C(C)CC)NC(=O)[C@H](Cc2ccccc2)NC(=O)[C@H]([C@@H](C)O)NC(=O)C(CC(C)C)NC1=O)C(=O)N[C@@H](CCCNC(C)=N)C(=O)N[C@@H](CC(C)C)C(=O)N[C@@H](CCCNC(=N)N)C(=O)N[C@@H](CCCCN)C(=O)NCC(=O)N[C@@H](CCCNC(=N)N)C(=O)NC(C(=O)N[C@@H](CCSC)C(=O)NC(CCSC)C(=O)N[C@@H](CC(=O)O)C(=O)NC(C(=O)N[C@@H](CCCCN)C(=O)NC(CCCCN)C(=O)O)C(C)C)CSC3 (mixture of isomers) [DL-2]
CT26 cells
  inhibition of proliferation: significantly inhibit the proliferation
CT26 cells; listed as DL-2-TBMB
  inhibition of proliferation: able to effectively inhibit the proliferation
[1]
  expression of the epithelial marker E-Cadherin: able to induce expression
[1]; vs vehicle control
  mesenchymal stem-like resistant protein markers (CSV, ABCB5, EGFR, FOXQ1): significantly inhibit
PDL2:IMPα1 complex
  PDL2:IMPα1 complex (DUOLINK): no significant effect
